In publication PMC4774501 (Biomolecules & Therapeutics, 2016):

Molecular target: T1, vitamin D receptor (VDR) (Homo sapiens, UniProt P11473)
T1 sequence (P11473 118-427): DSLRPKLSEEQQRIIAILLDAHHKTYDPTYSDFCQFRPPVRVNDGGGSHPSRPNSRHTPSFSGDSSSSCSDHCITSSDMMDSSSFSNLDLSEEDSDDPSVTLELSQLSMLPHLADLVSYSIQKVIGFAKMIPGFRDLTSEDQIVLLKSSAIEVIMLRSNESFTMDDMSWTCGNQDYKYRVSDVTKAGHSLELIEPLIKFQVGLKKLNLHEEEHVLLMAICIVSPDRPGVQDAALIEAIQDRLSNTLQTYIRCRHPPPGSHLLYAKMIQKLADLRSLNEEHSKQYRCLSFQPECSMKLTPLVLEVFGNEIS
Assay: intrinsic tryptophan fluorescence quenching titration
Format: binding

`O=c1c(O)c(-c2ccc(O)c(O)c2)oc2cc(O)cc(O)c12` [quercetin] gave a Kd of 21.1 ± 4.31 µM.
